In EPA's CvTdb concentration-time database:

Legend:
Rat [1] = assay: concentration in plasma after dosing
Rat [2] = assay: concentration in brain after dosing; conditions: oral
Rat [3] = assay: concentration in kidney after dosing; conditions: oral
Rat [4] = assay: concentration in liver after dosing; conditions: oral

O=S(=O)([O-])C(F)(F)C(F)(F)C(F)(F)C(F)(F)C(F)(F)C(F)(F)C(F)(F)C(F)(F)F [Perfluorooctane Sulfonate]
concentration in plasma [ng/mL], Rat [1], dosed: Perfluorooctane Sulfonate, 2 mg/kg
Conditions | Female | Male
1 h, iv, F344 | 4190 | –
1 h, iv, Harlan Sprague-Dawley | 4680 | –
1 h, oral, Harlan Sprague Dawley | 2210 | –
5 min, iv, F344 | 4540 | –
5 min, iv, Harlan Sprague-Dawley | 4940 | –
5 min, oral, Harlan Sprague Dawley | 45.8 | –
6 h, iv, F344 | 4360 | 4280
6 h, oral, Harlan Sprague Dawley | 3970 | –
12 h, iv, F344 | 4300 | 3680
12 h, oral, Harlan Sprague Dawley | 7550 | –
24 h, iv, F344 | 4320 | 3470
24 h, iv, Harlan Sprague-Dawley | 3660 | –
24 h, oral, Harlan Sprague Dawley | 4650 | –
192 h, iv, F344 | 4590 | –
192 h, iv, Harlan Sprague-Dawley | 2490 | –
192 h, oral, Harlan Sprague Dawley | 3130 | –
528 h, iv, F344 | 3280 | 1770
528 h, iv, Harlan Sprague-Dawley | 2170 | –
528 h, oral, Harlan Sprague Dawley | 2690 | –
864 h, iv, F344 | 1540 | 1300
864 h, oral, Harlan Sprague Dawley | 1610 | –
1200 h, iv, F344 | 2010 | 1650
1200 h, iv, Harlan Sprague-Dawley | 650 | –
1200 h, oral, Harlan Sprague Dawley | 1100 | –
1704 h, iv, F344 | 1840 | 573
1704 h, iv, Harlan Sprague-Dawley | 868 | –
1848 h, oral, Harlan Sprague Dawley | 780 | –
2376 h, iv, F344 | 750 | 395
2376 h, iv, Harlan Sprague-Dawley | 698 | –
2520 h, oral, Harlan Sprague Dawley | 388 | –
3216 h, iv, F344 | 90.3 | –
3360 h, oral, Harlan Sprague Dawley | 237 | –

dosed: Perfluorooctane Sulfonate
Conditions | concentration in brain, Rat [2] [ng/g] | concentration in kidney, Rat [3] [ng/g] | concentration in liver, Rat [4] [ng/g]
6 h, 2 mg/kg, Female, Harlan Sprague Dawley | – | 4960 | 24800
6 h, 20 mg/kg, Female, F344 | 3650 | 112000 | 118000
6 h, 20 mg/kg, Male, Harlan Sprague Dawley | 5430 | 85500 | 135000
24 h, 2 mg/kg, Female, Harlan Sprague Dawley | 615 | 5860 | 24400
24 h, 20 mg/kg, Female, F344 | 11500 | 131000 | 127000
24 h, 20 mg/kg, Male, Harlan Sprague Dawley | 9570 | 66800 | 148000
864 h, 2 mg/kg, Female, Harlan Sprague Dawley | – | 1750 | 13200
864 h, 20 mg/kg, Female, F344 | 3420 | 53400 | 72900
864 h, 20 mg/kg, Male, Harlan Sprague Dawley | 2750 | 21500 | 93900
1848 h, 2 mg/kg, Female, Harlan Sprague Dawley | – | 923 | 5150
1848 h, 20 mg/kg, Female, F344 | 1270 | 21400 | 44900
1848 h, 20 mg/kg, Male, Harlan Sprague Dawley | 1560 | 10500 | 51000
3360 h, 2 mg/kg, Female, Harlan Sprague Dawley | – | 517 | 8200
3360 h, 20 mg/kg, Male, Harlan Sprague Dawley | 672 | 2460 | 22900

O=C(O)C(F)(F)C(F)(F)C(F)(F)C(F)(F)C(F)(F)F [Perfluorohexanoic Acid]
concentration in plasma [ng/mL], Rat [1], dosed: Perfluorohexanoic Acid
Conditions | 40 mg/kg | 80 mg/kg
0.25 h, iv, Male, F344 | 21800 | –
0.25 h, oral, Male, Harlan Sprague Dawley | 27900 | 92000
0.5 h, iv, Female, Harlan Sprague-Dawley | 6320 | –
0.5 h, iv, Male, F344 | 26100 | –
0.5 h, oral, Male, Harlan Sprague Dawley | 64700 | 151000
0.75 h, iv, Female, Harlan Sprague-Dawley | 1990 | –
0.75 h, iv, Male, F344 | 12600 | –
0.75 h, oral, Male, Harlan Sprague Dawley | 55100 | 110000
1 h, iv, Female, Harlan Sprague-Dawley | 327 | –
1 h, iv, Male, F344 | 9120 | –
1 h, oral, Male, Harlan Sprague Dawley | 48300 | 127000
1.5 h, iv, Male, F344 | 7580 | –
3 h, iv, Male, F344 | 3740 | –
3 h, oral, Male, Harlan Sprague Dawley | 34400 | 60100
3 h, oral, Male, Harlan Sprague Dawley - this seems too small | – | 59500
5 min, iv, Male, F344 | 22900 | –
5 min, oral, Male, Harlan Sprague Dawley | 14600 | 59900
6 h, iv, Male, F344 | 3840 | –
6 h, oral, Male, Harlan Sprague Dawley | 18300 | 27700
9 h, oral, Male, Harlan Sprague Dawley | 3710 | 3460
12 h, iv, Male, F344 | 57.2 | –
12 h, oral, Male, Harlan Sprague Dawley | 2040 | –
24 h, iv, Male, F344 | 68.1 | –
24 h, oral, Male, Harlan Sprague Dawley | 222 | 627

dosed: Perfluorohexanoic Acid, 80 mg/kg
Conditions | concentration in brain, Rat [2] [ng/g] | concentration in kidney, Rat [3] [ng/g] | concentration in liver, Rat [4] [ng/g]
0.5 h, Female, Harlan Sprague Dawley | 1210 | 55900 | 32800
0.5 h, Male, Harlan Sprague Dawley | 2270 | 207000 | 105000
1 h, Female, Harlan Sprague Dawley | 1770 | 98400 | 42200
1 h, Male, Harlan Sprague Dawley | 2670 | 74100 | 87200
3 h, Female, Harlan Sprague Dawley | 703 | 45000 | 8510
3 h, Male, Harlan Sprague Dawley | 1170 | 44300 | 29600
3 h, Male, Harlan Sprague Dawley - this seems too small | 799 | 56500 | 36100
6 h, Female, Harlan Sprague Dawley | – | 14200 | 5010
6 h, Male, Harlan Sprague Dawley | 495 | 10900 | 9650
12 h, Female, Harlan Sprague Dawley | – | 663 | –
12 h, Male, Harlan Sprague Dawley | – | 2880 | 3140
